Results reported in patent US20130071432A1 (priority 2011, published 2013).

Legend:
VSV = settings: mouse, in vivo; cited from earlier work
[1] = in vivo; cited from earlier work
in vitro [2] = settings: human, mouse, reduction in cell viability
in vitro [3] = settings: human
in vitro [4] = settings: human; remark: listed apart in the source
[5] = molecular target: T1, full length RNase L activated by 2-5A (Homo sapiens, UniProt Q05823); experiment: biochemical
T1 sequence (Q05823 1-741): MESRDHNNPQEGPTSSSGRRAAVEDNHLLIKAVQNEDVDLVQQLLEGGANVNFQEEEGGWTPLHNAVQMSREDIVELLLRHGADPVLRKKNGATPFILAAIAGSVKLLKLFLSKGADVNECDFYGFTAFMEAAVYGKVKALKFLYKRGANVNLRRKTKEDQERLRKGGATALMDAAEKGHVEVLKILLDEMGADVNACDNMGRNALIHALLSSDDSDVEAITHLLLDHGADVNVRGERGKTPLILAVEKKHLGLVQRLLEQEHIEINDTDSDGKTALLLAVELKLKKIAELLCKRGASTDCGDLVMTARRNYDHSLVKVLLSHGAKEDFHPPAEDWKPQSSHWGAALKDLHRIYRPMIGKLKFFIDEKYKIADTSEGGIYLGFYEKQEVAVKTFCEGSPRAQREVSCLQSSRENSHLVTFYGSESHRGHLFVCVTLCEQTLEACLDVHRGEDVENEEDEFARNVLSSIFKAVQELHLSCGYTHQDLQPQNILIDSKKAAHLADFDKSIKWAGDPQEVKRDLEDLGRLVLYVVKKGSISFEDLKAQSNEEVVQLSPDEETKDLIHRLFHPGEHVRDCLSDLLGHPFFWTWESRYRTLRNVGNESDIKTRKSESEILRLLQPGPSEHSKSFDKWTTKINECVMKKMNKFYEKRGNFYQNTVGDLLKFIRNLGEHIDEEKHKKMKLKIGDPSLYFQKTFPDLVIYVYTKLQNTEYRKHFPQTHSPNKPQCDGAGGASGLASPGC

[6] = molecular target: T2, constitutively active, truncated mutant RNase L(NΔ335) (Homo sapiens, UniProt Q05823); experiment: biochemical
T2 sequence (Q05823 336-741 limits assumed): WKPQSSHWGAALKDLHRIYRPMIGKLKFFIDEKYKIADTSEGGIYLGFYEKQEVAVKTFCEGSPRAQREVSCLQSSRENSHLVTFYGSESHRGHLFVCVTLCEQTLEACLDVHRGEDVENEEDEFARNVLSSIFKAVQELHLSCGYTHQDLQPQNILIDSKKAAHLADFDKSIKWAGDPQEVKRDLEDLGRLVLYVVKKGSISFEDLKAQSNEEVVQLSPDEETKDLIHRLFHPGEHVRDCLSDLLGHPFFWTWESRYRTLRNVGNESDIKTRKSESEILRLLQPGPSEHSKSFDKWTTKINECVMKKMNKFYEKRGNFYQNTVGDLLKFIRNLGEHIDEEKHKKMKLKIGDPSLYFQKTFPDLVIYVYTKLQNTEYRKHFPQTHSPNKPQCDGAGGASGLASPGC

Row | SMILES | induction of antiviral antibodies against VSV challenge (VSV) | serum concentrations [1] | cytotoxicity (in vitro [2]) [%] | cytotoxicity (in vitro [3]) [%] | cytotoxicity (in vitro [4]) [%] | IC50 [5] [nM] | IC50 [6] [nM]
1 | O=P1(N(CCCl)CCCl)NCCCO1 (stereo not shown) [CPA, cyclophosphamide] | completely suppressed induction of antiviral antibodies |  |  |  |  |  | 
2 | CCN(CC)CCNC(=O)c1c(C)[nH]c(/C=C2\C(=O)Nc3ccc(F)cc32)c1C [sunitinib] |  | equivalent to those of patients | ~20 | 60 | 60 | 1400 | 1400
